Results on 8 molecules are retold here after patent publication US20050009865A1, “Quinoline derivative as diagnostic probe for disease with tau protein accumulation” (priority 2002, published 2005).

“Also recorded” adds a separate entry of the source.

Series [1] is described as follows: Testing of acute toxicity, intravenous administration. The conditions noted are these: male, Crj:CD1, mouse, in vivo, mice, observed up to 7 days, read-out: Maximum Tolerated Dose. The method, then: Acute toxicity of the inventive compounds was determined employing mice by intravenous administration. Male Crj:CD1 mice were used and divided into groups of 4 mice, with an average weight of each group of 30-34 g. Each compound was dissolved in saline, 1N HCl, or a mixture of 1N HCl/polyethylene glycol 400, and then diluted with distilled water for injection, and administered via tail vein. Up to 7 days after administration, observations were made.

Series [2] is described as follows: Testing of blood-brain barrier permeability. The class given is in vivo. To be noted: mice, two minutes after intravenous administration.
Method: Compounds of the present invention were intravenously administered to mice to determine their in vivo blood-brain barrier permeability. • (1) Mice utilized S1c:ICR weighing 30-40 g (7 weeks old, n=3) (Nippon SLC). • (2) A test compound was dissolved in 1N HCl, and then diluted with purified water, and injected via tail vein. Two minutes after administration, the mice, under ether anesthesia, were subjected to taking blood from the abdominal aorta with a heparin-treated syringe and removing the brain. • (3) After taking blood, blood samples were centrifuged at 14,000 rpm at 4° C. for 10 minutes, and their supernatants were kept at −80° C. as plasma sample. The brain (including cerebellum) was kept at −80° C. after its removal. • (4) The plasma sample, when used, was thawed, diluted with purified water, and then applied to a conditioned C18 solid-phase extraction cartridge (bond elute C18, 200 mg, Lot. 070864, Varian), followed by elution with methyl alcohol. • (5) The brain material, when used, were subjected to measuring its wet weight with the brain remaining frozen, and saline was added for homogenization. The homogenate was centrifuged for 10 minutes, and the supernatant was applied to a conditioned C18 solid-phase extraction cartridge and eluted with methyl alcohol. • (6) The test compound was detected at its maximum absorbance (a UV/VIS detector, Waters) and fluorescence (an FS-8020 fluorometer, Tosoh) employing high performance liquid chromatography. • (7) For each of the plasma and brain, the content of the test compound in the plasma or brain (%ID (injected dose)/ml or g) was determined, relative to the administered-dose.
Series [3] relates to neurofibrillary tangles (or phosphorylated tau protein). Put plainly: Staining of neurofibrillary tangles in brain sections of a patient with Alzheimer's disease (screening method). The class given is binding, human. To be noted: for staining of neurofibrillary tangles (or phosphorylated tau protein): brain/hippocampus sections of Alzheimer's disease patient, 100 μM compound in 50% ethanol, fluorescence microscopy, compared with thioflavin S on adjacent section. The source says: (§1) The following explanation is made about a method for screening the inventive compounds. • (1) Temporal lobe or hippocampus specimens of the brain of a patient who had been definitely diagnosed pathologically as Alzheimer's disease and of a normal aged individual were used. These specimens were provided from Fukushimura Hospital, our joint research facility, with the consent to their use for research purpose received from the bereaved family of the patient (BF Research Laboratories Institutional Ethics Board Permission No. RS-99-02). • (2) The brain tissues embedded in paraffin were sliced 6 or 8 μm thick, extended on slides, and dried. The paraffin-embedded brain sections were deparaffined by washing sequentially with xylene (10 minutes, twice), 100% ethanol (5 minutes, twice), 95% ethanol (5 minutes, twice), and a stream of water (10 minutes). • (3) Pre-treatment for staining with compounds of the present invention involved treating the sections for eliminating self-fluorescence due to lipofuscin. First, the deparaffined sections were immersed into a 10% formalin solution for 60 minutes and washed with PBS (phosphate-buffered saline) for 5 minutes, followed by immersion into a 0.25% solution of KMnO4 for 90 minutes. After washing twice with PBS for 2 minutes each, the sections were immersed into a solution of 0.1% K2S2O5/oxalic acid for about 30 seconds each, and then washed three times with PBS for 2 minutes each. • (4) About 150 μl of a 100 μM solution of a compound of the present invention dissolved in 50% ethanol was added dropwise onto the sections and allowed the reaction to be carried out for 10 minutes. The sections were dipped into tap water five times, and then 50% ethanol three to five times, followed by immediate classification. After that, the sections were immersed into PBS for 60 minutes, enclosed with Fluor Save Reagent (Calbiochem), and examined under UV-B excitation using a fluorescent microscope (Nikon, Eclips E800). Pictures were taken using a digital camera (Plaroid [sic] PDMCII).
Immunostaining was carried out as follows: • (1) After the sections were deparaffined, the sections were washed twice with distilled water for 2 minutes each, tissues were marked with an Immunopen. About 150 μl of 3% hydrogen peroxide (diluted in methanol) was added dropwise and allowed to stand at room temperature for 10 minutes. • (2) The sections were-washed twice with cold PBS-Tween 20 for 5 minutes each, and two drops of blocking serum were added and allowed the reaction to be carried out at 37° C. for 30 minutes. Excess water was removed, and two drops of pSer422, an antibody specific to phosphorylated tau (Wako Phosphorylated Tau Immunohistostain Kit 299-57301) and allowed the reaction to be carried out overnight at 4° C. • (3) On the next day, the sections were washed five times with cold PBS-Tween 20 for 2 minutes each, and two drops of a solution of goat anti-rabbit IgG conjugated to biotin were added and allowed the reaction to be carried out at 37° C. for 1 hour. […]

Another series has as its system senile plaques. Put plainly: Staining of senile plaques in hippocampus sections of the brain of a patient with Alzheimer's disease. The class given is binding, human. The conditions noted are these: compared with thioflavin S on adjacent section.
From the text: as §1

The target in series [4] is T1, Aβ1-40 taking β-sheet structures (Homo sapiens, UniProt P05067).
T1 construct: Aβ1-40 (Peptide Institute, Inc., Lot No. 520311, MW: 4329.8); purchased Peptide Institute, Inc. Lot No. 520311
T1 sequence (P05067 672-711 limits assumed): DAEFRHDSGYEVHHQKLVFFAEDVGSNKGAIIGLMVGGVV
The experiment in a line: Binding to amyloid β-protein on slides. To be noted: Aβ1-40 on slides; 1 μM solution of test chemical. The protocol:
Properties of binding to amyloid β-protein were examined as follows: • (1) Aβ1-40 (Peptide Institute, Inc., Lot No. 520311, MW: 4329.8) was dissolved in 50 mM potassium phosphate buffer (pH 7.4) at a concentration of 500 μM, and incubated at 37° C. for 3 days or longer, thereby making the protein take β-sheet structures. • (2) After incubation, the Aβ solution was vortexed and diluted to 50 μM for use. • (3) 20 μl of the Aβ1-40 solution was dropped onto a poly-L-lysine-coated slide (MICRO SLIDE GLASS S7441, […]) and dried on an extender (Sakura PS-C2) at about 45° C. • (4) The Aβ1-40 on the slide was covered with 20 μl of 1 μM solution of a chemical to be tested, allowed to stand at room temperature for about 10 minutes, and then washed with a stream of water (tap water), followed by examination under a microscope.

Consider `CNc1ccc(-c2ccc3ccccc3n2)cc1` [BF-158, 2-(4-(methylamino)phenyl)quinoline], for which the MTD at 7 days in series [1] is not below 10 mg/kg. Further, in series [2], the “Brain content (blood-brain barrier permeability)” value (from here on “Brain content”) is 9.7 % ID/g or ml and the Plasma content is on record as 1.8 % ID/g or ml.
`Nc1ccc(-c2ccc3ccccc3n2)cc1` [BF-170, 2-(4-(amino)phenyl)quinoline]: the “staining of neurofibrillary tangles (or phosphorylated tau protein)” value (“staining of neurofibrillary tangles” below) in series [3] is “stained only neurofibrillary tangles (or phosphorylated tau protein)”. The “staining of phosphorylated tau protein recognized by pSer422 antibody” value in series [3] (hippocampus sections of Alzheimer's disease patient, adjacent section immunostained with pSer422) is recorded as “stained phosphorylated tau protein which was recognized by pSer422”. Further, the “staining of senile plaques” value in the series on senile plaques was “stained only neurofibrillary tangles (or phosphorylated tau protein)”. The “binding to Aβ1-40 taking β-sheet structures (fluorescence)” value in series [4] was “hardly bound to this Aβ1-40 (fluorescence was not observed); also recorded: hardly bound to the Aβ1-40 protein (fluorescence was not observed)”. Moreover, in series [1], the MTD at 7 days was not below 10 mg/kg. In series [2], the “Brain content” value is on record as 9.1 % ID/g or ml and the Plasma content is on record as 1.4 % ID/g or ml.
Regarding `CN(C)c1ccc(-c2ccc3ccccc3n2)cc1` [Compound N-310, 2-(4-(dimethylamino)phenyl)quinoline], in series [3], the “staining of neurofibrillary tangles” value is “stained neurofibrillary tangles (or phosphorylated tau protein)”. In addition, in series [2], the “Brain content” value is listed as 15.0 % ID/g or ml and the Plasma content is 1.0 % ID/g or ml.
Consider `CCN(CC)c1ccc(-c2ccc3ccccc3n2)cc1` [Compound N-313, 2-(4-(diethylamino)phenyl)quinoline], for which, in series [3], the “staining of neurofibrillary tangles” value was “stained neurofibrillary tangles (or phosphorylated tau protein)”. In addition, in series [1], the MTD at 7 days was not below 10 mg/kg. In addition, in series [2], the “Brain content” value was 4.6 % ID/g or ml and the Plasma content is 1.1 % ID/g or ml.
As to `Cc1ccc2ccc(-c3ccc(N(C)C)cc3)nc2c1` [SA-820, 2-(4-(dimethylamino)phenyl)-7-methylquinoline], the “staining of senile plaques” value in the series with senile plaques is on record as “stained senile plaques (wedge-shaped arrowheads) with a clearly weaker degree than that of thioflavin S; also recorded: stained senile plaques (wedge-shaped arrowheads) with a clearly-weaker degree than that of thioflavin S”.
The same measure, in the same setting: then `CN(C)c1ccc(-c2ccc3c(ccc4ccccc43)n2)cc1` [SA-821, 3-(4-(dimethylamino)phenyl)benzo(f)quinoline], with “stained senile plaques (wedge-shaped arrowheads) with a clearly weaker degree than that of thioflavin S”.
With `Cc1ccc2c(c1)sc(-c1ccc(N(C)C)cc1)[n+]2C.[Cl-]` [thioflavin T, reference compound], the “binding to Aβ1-40 taking β-sheet structures (fluorescence)” value in series [4] was “significant binding to this Aβ1-40; also recorded: significant binding to the Aβ1-40 protein”.
With thioflavin S [reference compound], in series [3], the “staining of neurofibrillary tangles” value is “stained both senile plaques (wedge-shaped arrowheads) and neurofibrillary tangles (or phosphorylated tau protein); also recorded: stained both senile plaques and neurofibrillary tangles”. Moreover, the “staining of senile plaques” value in the series with senile plaques was “stained both senile plaques (wedge-shaped arrowheads) and neurofibrillary tangles (or phosphorylated tau protein); also recorded: stained both senile plaques and neurofibrillary tangles”.
